Reference: publication PMC3610872, “Full and Partial Agonists of Thromboxane Prostanoid Receptor Unveil Fine Tuning of Receptor Superactive Conformation and G Protein Activation” (PLoS ONE, 2013)
Where a chain is given by its changes, count along the chain named.

Tests used:
[1] = target: T1, WT human TP receptor (Homo sapiens, UniProt P21731); experiment: [3H]SQ29,548 radioligand binding (mixed-type and heterologous competition), WT receptor; settings: HEK293 cells, competition vs 1 nM [3H]SQ29,548, 25°C 30 min, value ±%CV
T1 construct: expressed in transfected cells; host or cells: HEK293
T1 sequence (P21731 1-343): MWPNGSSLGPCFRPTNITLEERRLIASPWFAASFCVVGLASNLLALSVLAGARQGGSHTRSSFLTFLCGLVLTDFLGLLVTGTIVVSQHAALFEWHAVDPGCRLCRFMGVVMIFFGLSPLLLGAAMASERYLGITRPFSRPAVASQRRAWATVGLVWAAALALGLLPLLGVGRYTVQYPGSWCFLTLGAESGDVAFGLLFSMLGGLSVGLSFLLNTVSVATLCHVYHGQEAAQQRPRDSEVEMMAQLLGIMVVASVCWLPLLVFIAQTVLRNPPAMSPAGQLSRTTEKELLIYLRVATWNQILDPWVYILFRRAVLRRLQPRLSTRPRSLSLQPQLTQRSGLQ
Method: (§1) Receptor expression and functional activity were monitored 48 hours after transfection. […] Heterologous competition studies involved concentrations of the indicated unlabeled ligands extending from 0.1 nM to 30 µM. After 30 min incubation at 25 °C, the reaction was stopped by aspiration of the medium, cells were washed with ice-cold PBS containing 0.2% (w/v) BSA and lysed in 0.5 N NaOH. Radioactivity was measured by liquid scintillation counting. Binding data were analyzed as described in Data and Statistical Analysis. Quantification of the total labeled inositol phosphates (IP) accumulation was performed using a conventional gravity flow column chromatography, as described previously, [19]. Briefly, the day before the assay, cells were labeled with 0,5 µCi of [myo-2-^3H]inositol (17 Ci/mmol) for 18–20 hours in serum-free, inositol-free DMEM containing 20 mM HEPES buffer, pH 7.4, and 0.5% (w/v) Albumax I. The day of the assay, media was replaced with serum-free, inositol-free DMEM containing 25 mM LiCl and cells stimulated for 30 min with the indicated agonists. After removal of the medium, cells were lysed with 10 mM formic acid and lysates were applied onto an anion exchange AG 1X-8 column, formate form, 200–400 mesh. The total IP fraction was then eluted with 2 M ammonium formate/formic acid buffer at pH 5 and radioactivity determined by liquid scintillation counting. Rescue experiments were performed essentially as above, except for a 18 hours incubation step with 1 µΜof […] followed by its removal by washing three times with ice-cold PBS containing 1 mM MgCl2 and 0.1 mM CaCl2 before starting the experiment.
(§2) All average results are presented as mean±S.E. When indicated, ANOVA followed by post-hoc test for multiple comparisons was performed. Data from radioligand binding were evaluated by a nonlinear, least-squares curve-fitting procedure using GraphPad Prism version 4, implemented with the n-ligand m-binding site model, as described in the LIGAND computer program. Concentration-response curves were evaluated using Prism 4, which use the four parameters logistic model as described in the ALLFIT program. Parameter errors are all expressed in percentage coefficient of variation (%CV) and calculated by simultaneous analysis of at least two different independent experiments performed in duplicate or triplicate. Parameter comparison has been performed on the base of the F test for extra sum of square principle. All curves shown are computer generated.
(§3) Thus, transfection conditions were adjusted to secure equivalent levels of receptor expression for WT and mutants as previously described, [17], [19]. […] All the experiments were conducted within this range of receptor expression, if not specified differently.

[2] = target: T2, E129V mutant human TP receptor (Homo sapiens, UniProt P21731, E129V); experiment: [3H]SQ29,548 radioligand binding (mixed-type and heterologous competition), E129V mutant; settings: HEK293 cells; for Ki: E129V, competition vs 1 nM [3H]SQ29,548, 25°C 30 min, value ±%CV; for Affinity ratio (Ki WT over Ki E129V): WT vs E129V
T2 construct: expressed in transfected cells; host or cells: HEK293
T2 sequence (P21731 1-343 E129V): T1 sequence (P21731 1-343) with E129V
Method: as §1, §2, §3

[3] = target: T1, WT human TP receptor; experiment: Total inositol phosphate (IP) accumulation, WT receptor; format: cell-based; settings: HEK293 cells; for Pharmacodynamic behaviour in total IP assay: SQ29,548 in absence or presence of Gαq overexpression
Method: as §1, §2

[4] = target: T2, E129V mutant human TP receptor; experiment: Total inositol phosphate (IP) accumulation, E129V mutant; format: cell-based; settings: HEK293 cells; for EC50 / Emax, total IP / Pharmacodynamic behaviour in total IP assay: E129V; for Activity ratio (EC50 WT over EC50 E129V), total IP: WT vs E129V; for Pharmacodynamic behaviour in total IP assay: SQ29,548 in absence or presence of Gαq overexpression
Method: as §1, §2

[5] = target: T1, WT human TP receptor; experiment: BRET2 measurement of Gq protein activation, WT receptor; format: cell-based; settings: HEK293 cells, value ±%CV; for EC50: Gαq-Rluc8/GFP10-Gγ2/Gβ1, 2 min ligand
Description: HEK 293 cells were co-transfected with vectors expressing the GFP^10-Gγ2, Gβ1, Gαq-Rluc8 and WT or E129V mutant of TP receptor to investigate direct G protein activation with an intramolecular bioluminescent resonance energy transfer (BRET^2) strategy. To avoid possible variations in the BRET signaling resulting from fluctuation in the relative expression levels of the energy donor and acceptor, we designed transfection conditions to maintain constant GFP^10 and Rluc8 expression and their ratios in each experimental set. Total fluorescence and luminescence were directly determined in an aliquot of the transfected cells using an Infinite F500 microplate reader (Tecan, Milan, Italy) as previously described. […] 48 hours after transfection, cells were washed once with PBS, detached, and resuspended in PBS+0.1% (w/v) glucose at room temperature. Cells were then distributed (80 µg of proteins per well) into a 96-well microplate (Wallac, Perkin Elmer, Monza, Italy) and incubated in the presence or absence of increasing concentrations of ligands for 2 min before the addition of the luciferase substrate Coelenterazine 400a (5 µM; Biotium, Hayward, CA). BRET signal between Rluc8 and GFP^10 was measured immediately after the addition of the Rluc substrate in the microplate reader. The BRET signal was calculated as the ratio of the light emitted by GFP^10 (510–540 nm) over the light emitted by Rluc8 (370–450 nm). The changes in BRET induced by the ligands were expressed as Òagonist-induced BRETÓ, obtained by subtracting the BRET signal detected in the presence of PBS by the BRET signal detected in the presence of the specific ligand.
as §2
This recorded real time conformational changes between the α and the βγ subunits within the Gq protein, where a decrease of the BRET signal provoked by agonist-induced receptor activation is indicative of a conformational reorganization leading the Gα-Gβγ interface to open, reflects the initial event of Gq protein activation, [23] (Figure 6A).

[6] = target: T2, E129V mutant human TP receptor; experiment: BRET2 measurement of Gq protein activation, E129V mutant; format: cell-based; settings: HEK293 cells; for EC50: E129V, Gαq-Rluc8/GFP10-Gγ2/Gβ1, 2 min ligand, value ±%CV; for Activity ratio (EC50 WT over EC50 E129V), BRET: WT vs E129V
Method: as §2

[7] = target: T3, double mutant E129V/E240V of human TP receptor (Homo sapiens, UniProt P21731, E129V/E240V); experiment: Total inositol phosphate (IP) accumulation, E129V/E240V double mutant, rescue with SQ29,548; format: cell-based; settings: cells exposed to 1 µM for 18 hours, removed by washing, then 1 µM U46619 for 30 min
T3 construct: expressed in transfected cells; host or cells: HEK293
T3 sequence (P21731 1-343 E129V/E240V): T1 sequence (P21731 1-343) with E129V, E240V
Method: Receptor expression and functional activity were monitored 48 hours after transfection. […] Heterologous competition studies involved concentrations of the indicated unlabeled ligands extending from 0.1 nM to 30 µM. After 30 min incubation at 25 °C, the reaction was stopped by aspiration of the medium, cells were washed with ice-cold PBS containing 0.2% (w/v) BSA and lysed in 0.5 N NaOH. Radioactivity was measured by liquid scintillation counting. Binding data were analyzed as described in Data and Statistical Analysis. Quantification of the total labeled inositol phosphates (IP) accumulation was performed using a conventional gravity flow column chromatography, as described previously, [19]. […] The total IP fraction was then eluted with 2 M ammonium formate/formic acid buffer at pH 5 and radioactivity determined by liquid scintillation counting. […]
All average results are presented as mean±S.E. When indicated, ANOVA followed by post-hoc test for multiple comparisons was performed. Data from radioligand binding were evaluated by a nonlinear, least-squares curve-fitting procedure using GraphPad Prism version 4, implemented with the n-ligand m-binding site model, as described in the LIGAND computer program. Concentration-response curves were evaluated using Prism 4, which use the four parameters logistic model as described in the ALLFIT program. […]

[8] = 30 min stimulation, no Gαq overexpression, value ±%CV
[9] = Gαq overexpression (5x), 30 min

EC50 [3, 9] | Emax, total IP [3, 9] | Pharmacodynamic behaviour in total IP assay [3] | EC50 [4, 9] | Emax, total IP [4, 9] | Emax, total IP ([4]; no Gαq overexpression, 30 min) | Pharmacodynamic behaviour in total IP assay [4] | Structure (SMILES) | Ki [1] | Ki [2] | Affinity ratio (Ki WT over Ki E129V) [2] | Emax, total IP [3, 8] | EC50 ([3]; 30 min stimulation, value ±%CV) | EC50 ([4]; 30 min stimulation, value ±%CV) | Emax, total IP ([4]; 30 min stimulation, value ±%CV) | Activity ratio (EC50 WT over EC50 E129V), total IP [4] | EC50 [5] | Emax, agonist-induced BRET [5] | EC50 [6] | Activity ratio (EC50 WT over EC50 E129V), BRET [6] | Functional rescue of double mutant receptor activity [7]
 |  |  |  |  |  |  | CCCCC[C@H](O)/C=C/[C@H]1[C@H](O)CC(=O)[C@H]1C/C=C\CCCC(=O)O [8-isoPGE2, 8-iso Prostaglandin E2] | 2916 ± 15 nM | 547.6 ± 2 nM | 5.3 | 5087±21 dpm/well | 1160 ± 72 nM | 95.9 ± 60 nM | 12201±5 dpm/wel | 12.0 | 1980 ± 72 nM | −0.02±42 | 485 ± 46 nM | 4.1 | 
 |  |  |  |  |  |  | CCCCC[C@H](O)/C=C/[C@@H]1[C@H](C/C=C\CCCC(=O)O)[C@@H](O)C[C@H]1O [8-isoPGF2α, 8-iso Prostaglandin F2α] | 12930 ± 19 nM | 2908 ± 11 nM | 4.4 | 6744±42 dpm/well | 4000 ± 68 nM | 493 ± 53 nM | 15287±7 dpm/wel | 8.1 | 3940 ± 48 nM | −0.05±9 | 404 ± 31 nM | 9.7 | 
 |  |  |  |  |  |  | O=C(O)CCCC=CCC1C2CCC(O2)C1C=CC(O)COc1ccc(I)cc1 (stereo not drawn) [I-BOP, [1S-[1α,2α(Z),3β(1E,3S*),4α]]-7-[3-[3-hydroxy-4-(4-iodophenoxy)-1-butenyl]-7-oxabicyclo[2.2.1]hept-2-yl]-5-heptenoic acid] | 24.3 ± 18 nM | 3.9 nM |  | 13099±14 dpm/well | 25.1 ± 65 nM | 2.99 nM | 17156±8 dpm/wel |  | 13 ± 27 nM | −0.07±5 | 3.96 nM |  | 
1450 nM | 19670 dpm/well | very weak partial agonist | 747 nM | 26642 dpm/well | 19423 dpm/well | much stronger agonist | CCCCC[C@H](O)/C=C/C1CC2CC(C1C/C=C\CCCC(=O)O)C2(C)C (stereo partly drawn) [PTA2, 9α,11α-(dimethyl)methylene-15S-hydroxy-11α-deoxy-11α-methylene-thromba-5Z,13E-dien-1-oic acid] | 12100 nM | 4840 nM |  | 5856 dpm/well |  |  |  |  |  |  |  |  | 
 |  | pure antagonist |  |  |  | pure antagonist | O=C(O)CCC/C=C\C[C@@H]1[C@H](CNNC(=O)Nc2ccccc2)[C@H]2CC[C@@H]1O2 [SQ29,548, [1S-[1α,2α(Z),3α,4α]]-7-[3-[[2-[(phenylamino)carbonyl]-hydrazino]methyl]-7-oxabicyclo[2.2.1]hept-2-yl]-5-heptenoic acid] |  |  |  |  |  |  |  |  |  |  |  |  | able to rescue double mutant receptor functional activity, albeit not completely
